Data as given in patent US20240400584A1, “COMPOUNDS AND METHODS FOR MODULATING SPLICING” (REMIX THERAPEUTICS INC., priority 2021, published 2024).

Experiments:
[1] = test system: HiBit-tagged Target C in K562 cells; assay: HiBiT protein abundance assay, Target C; format: cell-based, human; settings: HiBiT-modified K562 cells, 24 hours, luminescence
Method: Compounds described herein were used to screen for effects on quantitative protein abundance using a HiBit assay system (Promega). Quantitative protein abundance was determined by measuring the protein levels of HiBit-tagged protein targets expressed in cell culture via luminescence using the Nano-Glo HiBiT Lytic Detection System, which uses a split complementation assay format to reconstitute NanoBiT enzyme to generate a luminescent signal. A protein abundance assay was developed such that endogenous protein targets could be modified with the HiBiT peptide tag and their abundance could be assessed after compound treatment. Briefly, K562 cell lines containing a HiBiT-modification were treated with various compounds described herein (e.g., compounds of Formulas (I)). After treatment for 24 hours, the protein abundance of a specific target was determined by measuring luminescence.
Cells were maintained in IMDM with 10% FBS. Before the assay, cells were diluted with […] growth media (IMDM+[…] media) and were seeded in a 384-well plate at a density of 10000 cells/well (for each cell line listed in Table 8). Each compound was prepared as a 10-point 3-fold serial dilution in DMSO with the top dose at a final concentration of 10 μM in the well. Unmodified K562 cells were added at the previously specified density with DMSO to serve as an assay baseline and positive control (PC) and DMSO only with the respective modified cell lines was added to the negative control (NC) columns. Final DMSO concentration was kept at or below 0.25% o. Treated cell plates were placed in an incubator at 37° C. with […] for 24 hours. After 24 hours, 25 μL of Complete HiBit Lytic reagent was added to each well at room temperature (e.g. one plate requiring 10 mL Lytic Buffer, 100 μL LgBiT Protein, 200 μL Lytic Substrate), shaken for 5 minutes at 600 RPM, then left to sit for 10 minutes for signal to stabilize before reading on a Spark Cyto plate reader (Tecan) with a 500 ms measurement time.
To determine compound effects on protein abundance of each target in Table 9, the percent response for each respective cell line was calculated at each compound concentration as follows:
For the normalized response at each concentration, a four-parameter logistical regression was fit to the data and the response was interpolated at the […] to determine a concentration for protein abundance at 50% o (IC50) the untreated control.

Target C = assay: Gene panel canonical junction qPCR assay, Target C CJ mRNA (Table 7); format: cell-based, human; settings: Homo sapiens, read-out: Target C CJ mRNA decrease IC50
Summary of the method: (§1)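 Canonical-junction transcript decrease reported as IC50 from a 4-parameter logistic fit of percentage response, derived from 2^(−ΔΔCt) versus housekeeper (GAPDH/GUSB/PPIA) and DMSO control using preset ΔCt windows. Readout by cDNA synthesis and qPCR with exon-junction-overlapping probesets in compound-treated K562 or A673 cells.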

HTT = assay: Gene panel canonical junction qPCR assay, HTT CJ mRNA (Table 7); format: cell-based, human; settings: Homo sapiens, read-out: HTT CJ mRNA decrease IC50
Summary of the method: as §1

SMN2 = assay: Gene panel canonical junction qPCR assay, SMN2 CJ mRNA (Table 7); format: cell-based; settings: Homo sapiens, read-out: SMN2 CJ mRNA decrease IC50
Summary of the method: as §1

Compound	IC50 [1]	IC50 (Target C)	IC50 (HTT)	IC50 (SMN2)
Cc1cnc(-c2ccc3c(c2)COc2nc(N(C)[C@@H]4C[C@H]5CC[C@@H](C4)N5)ccc2-3)o1 [Compound 206]	100 to 1000 nM	1000 to 10000 nM	100 to 1000 nM	100 to 1000 nM
c1cc2c(cc1-c1cn[nH]c1)COc1nc(N3CCC34CCNC4)ccc1-2 (centres unmarked) [Compound 207]	1000 to 10000 nM	> 10000 nM	> 10000 nM	> 10000 nM
Cc1ncc(-c2ccc3c(c2)COc2nc(O[C@@H]4C[C@H]5C[C@@H](C4)N5)ccc2-3)s1 [Compound 208]	< 100 nM	100 to 1000 nM	< 100 nM	< 100 nM
c1cc2c(cc1-c1cn[nH]c1)COc1nc(O[C@@H]3C[C@H]4CC[C@@H](C3)N4)ccc1-2 [Compound 218]	100 to 1000 nM	100 to 1000 nM	< 100 nM	< 100 nM
COc1cc(-c2ccc3c(c2)COc2nc(O[C@@H]4C[C@H]5COC[C@@H](C4)N5)ccc2-3)cnn1 [Compound 290, (exo)-7-{[8-(6-methoxypyridazin-4-yl)-6H-isochromeno[3,4-b]pyridin-3-yl]oxy}-3-oxa-9-azabicyclo[3.3.1]nonane]	< 100 nM	100 to 1000 nM	< 100 nM	< 100 nM
COc1cc(-c2ccc3c(c2)COc2nc(N4CCC(N5CCCC5)C4)ccc2-3)cnn1 (centres unmarked) [Compound 305]	100 to 1000 nM	1000 to 10000 nM	100 to 1000 nM	100 to 1000 nM
COc1cc(-c2ccc3c(c2)COc2nc(N4CCC(N(C)C5CCC5)C4)ccc2-3)cnn1 (centres unmarked) [Compound 307, N-cyclobutyl-1-[8-(6-methoxypyridazin-4-yl)-6H-isochromeno[3,4-b]pyridin-3-yl]-N-methylpyrrolidin-3-amine]	100 to 1000 nM	100 to 1000 nM	100 to 1000 nM	< 100 nM

Next, values leading:

IC50 [1]	IC50 (Target C)	IC50 (HTT)	IC50 (SMN2)	Compound
100 to 1000 nM	100 to 1000 nM	< 100 nM	< 100 nM	COc1cc(-c2ccc3c(c2)COc2nc(N4CCC(NC5(C)CCC5)C4)ccc2-3)cnn1 (centres unmarked) [Compound 285, 1-[8-(6-methoxypyridazin-4-yl)-6H-isochromeno[3,4-b]pyridin-3-yl]-N-(1-methylcyclobutyl)pyrrolidin-3-amine]
1000 to 10000 nM	> 10000 nM	> 10000 nM	> 10000 nM	CC(C)Oc1cnnc(-c2ccc3c(c2)COc2nc(N4CCC(NC(C)(C)C)C4)ccc2-3)c1 (centres unmarked) [Compound 286]
100 to 1000 nM	1000 to 10000 nM	100 to 1000 nM	100 to 1000 nM	COc1cc(-c2ccc3c(c2)COc2nc(N4CCN[C@@H](C)C4)ccc2-3)cnn1 [Compound 287]
100 to 1000 nM	1000 to 10000 nM	100 to 1000 nM	100 to 1000 nM	COc1cc(-c2ccc3c(c2)COc2nc(N4CCC(N(C)C)C4)ccc2-3)cnn1 (centres unmarked) [Compound 306, 1-[8-(6-methoxypyridazin-4-yl)-6H-isochromeno[3,4-b]pyridin-3-yl]-N,N-dimethylpyrrolidin-3-amine]
